In patent publication US10787413B2, “Derivatives of curcuminoids and use thereof as an anticancer agent” (CHINA MEDICAL UNIVERSITY, priority 2016, dated 2020):

System: MDA-MB-231 cells
Test: cDNA microarray
Format: cell-based, human
Method: The cells were incubated with or without 21a. After exposure, cell pellets were collected, and the total RNA from each treatment was purified using the Qiagen RNeasy Mini Kit (Qiagen, Valencia, Calif., USA). The RNA purity was determined to check the quality at 260/280 nm using a NanoDrop 1000 Spectrophotometer (Thermo Fisher Scientific, Wilmington, Del., USA). mRNA was amplified and labeled using the Gene-Chip WT Sense Target Labeling and Control Reagents kit (Affymetrix, Santa Clara, Calif., USA) for expression analysis. The synthesized cDNA was labeled with fluorescence and then hybridized for 17 h using AffymetrixGeneChip Human Gene 1.0 ST array (Affymetrix) to determine microarray hybridization following the manufacturer's protocols. The arrays were subsequently washed using Fluidics Station 450 (Affymetrix), stained with streptavidin-phycoerythrin (Gene-Chip Hybridization, Wash, and Stain kit, Affymetrix), and scanned on a GeneChip Scanner 3000 (Affymetrix). The localized concentrations of fluorescent molecules were quantitated and analyzed using Expression Console Software (Affymetrix) with default RMA parameters as previously described (Chang et al. 2012; Liu et al. 2013). […]

SMILES: COc1cc(/C=C/C(=O)/C=C(O)/C=C/c2ccc(OC(=O)C(C)(CO)CO)c(OC)c2)ccc1OC(=O)C(C)(CO)CO [Compound 21a, ((1E,3Z,6E)-3-Hydroxy-5-oxohepta-1,3,6-triene-1,7-diyl)bis(2-methoxy-4,1-phenylene) bis(3-hydroxy-2-(hydroxymethyl)-2-methylpropenoate)]
- log2 (Ratio) RMND5A (mRNA, MDA-MB-231 cells, 24-h treatment, ID PH_hs_0027152): 3.038
- log2 (Ratio) SLC3A2 (mRNA, MDA-MB-231 cells, 24-h treatment, ID PH_hs_0027162): 2.961
- log2 (Ratio) GADD45B (mRNA, MDA-MB-231 cells, 24-h treatment, ID PH_hs_0027209): 2.665
- log2 (Ratio) FAM20C (mRNA, MDA-MB-231 cells, 24-h treatment, ID PH_hs_0027843): −2.724
- log2 (Ratio) LRRC45 (mRNA, MDA-MB-231 cells, 24-h treatment, ID PH_hs_0027863): −2.718
- log2 (Ratio) ABL2 (mRNA, MDA-MB-231 cells, 24-h treatment, ID PH_hs_0027902): 4.287
- log2 (Ratio) CENPI (mRNA, MDA-MB-231 cells, 24-h treatment, ID PH_hs_0028200): −2.537
- log2 (Ratio) CCDC85B (mRNA, MDA-MB-231 cells, 24-h treatment, ID PH_hs_0028915): −2.622
- log2 (Ratio) TCF21 (mRNA, MDA-MB-231 cells, 24-h treatment, ID PH_hs_0028987): 2.769
- log2 (Ratio) AKR1C1 (mRNA, MDA-MB-231 cells, 24-h treatment, ID PH_hs_0029660): 2.695
- log2 (Ratio) FANCF (mRNA, MDA-MB-231 cells, 24-h treatment, ID PH_hs_0030800): −2.553
- log2 (Ratio) NFKBIB (mRNA, MDA-MB-231 cells, 24-h treatment, ID PH_hs_0030976): 2.516
- log2 (Ratio) VIMP (mRNA, MDA-MB-231 cells, 24-h treatment, ID PH_hs_0031143): 3.213
- log2 (Ratio) GNG2 (mRNA, MDA-MB-231 cells, 24-h treatment, ID PH_hs_0031540): −2.661
- log2 (Ratio) CCL26 (mRNA, MDA-MB-231 cells, 24-h treatment, ID PH_hs_0031719): 4.147
- log2 (Ratio) SIK1 (mRNA, MDA-MB-231 cells, 24-h treatment, ID PH_hs_0033027): 2.548
- log2 (Ratio) DDIT3 (mRNA, MDA-MB-231 cells, 24-h treatment, ID PH_hs_0033101): 3.556
- log2 (Ratio) OMA1 (mRNA, MDA-MB-231 cells, 24-h treatment, ID PH_hs_0035337): −2.514
- log2 (Ratio) SAT1 (mRNA, MDA-MB-231 cells, 24-h treatment, ID PH_hs_0035404): 3.764
- log2 (Ratio) AKR1C3|AKR1C1 (mRNA, MDA-MB-231 cells, 24-h treatment, ID PH_hs_0035466): 2.962
- log2 (Ratio) ETV1 (mRNA, MDA-MB-231 cells, 24-h treatment, ID PH_hs_0035609): −2.788
- log2 (Ratio) RC3H1 (mRNA, MDA-MB-231 cells, 24-h treatment, ID PH_hs_0035614): 3.063
- log2 (Ratio) GDF15 (mRNA, MDA-MB-231 cells, 24-h treatment, ID PH_hs_0035765): 3.427
- log2 (Ratio) PIF1 (mRNA, MDA-MB-231 cells, 24-h treatment, ID PH_hs_0036878): −2.714
- log2 (Ratio) MALAT1 (mRNA, MDA-MB-231 cells, 24-h treatment, ID PH_hs_0037242): 2.683
- log2 (Ratio) MALAT1 (mRNA, MDA-MB-231 cells, 24-h treatment, ID PH_hs_0037472): 3.48
- log2 (Ratio) LOC100134259 (mRNA, MDA-MB-231 cells, 24-h treatment, ID PH_hs_0038982): −2.503
- log2 (Ratio) MXD3 (mRNA, MDA-MB-231 cells, 24-h treatment, ID PH_hs_0040619): −2.891
- log2 (Ratio) DUSP5 (mRNA, MDA-MB-231 cells, 24-h treatment, ID PH_hs_0042225): 2.541
- log2 (Ratio) MT4 (mRNA, MDA-MB-231 cells, 24-h treatment, ID PH_hs_0042334): 3.931
- log2 (Ratio) DNAJB1 (mRNA, MDA-MB-231 cells, 24-h treatment, ID PH_hs_0042409): 2.767
- log2 (Ratio) HMGCS1 (mRNA, MDA-MB-231 cells, 24-h treatment, ID PH_hs_0043719): 2.895
- log2 (Ratio) CLK1 (mRNA, MDA-MB-231 cells, 24-h treatment, ID PH_hs_0044272): 2.829
- log2 (Ratio) HSPA1A (mRNA, MDA-MB-231 cells, 24-h treatment, ID PH_hs_0044921): 2.535
- log2 (Ratio) EID3 (mRNA, MDA-MB-231 cells, 24-h treatment, ID PH_hs_0045501): 4.039
- log2 (Ratio) SLC6A6 (mRNA, MDA-MB-231 cells, 24-h treatment, ID PH_hs_0045838): 2.838
- log2 (Ratio) RN7SK (mRNA, MDA-MB-231 cells, 24-h treatment, ID PH_hs_0046245): 4.763
- log2 (Ratio) MARCKS (mRNA, MDA-MB-231 cells, 24-h treatment, ID PH_hs_0047352): −3.043
- log2 (Ratio) PDP1 (mRNA, MDA-MB-231 cells, 24-h treatment, ID PH_hs_0047571): −2.547
- log2 (Ratio) ARF6 (mRNA, MDA-MB-231 cells, 24-h treatment, ID PH_hs_0047697): −2.688
- log2 (Ratio) PHLDA1 (mRNA, MDA-MB-231 cells, 24-h treatment, ID PH_hs_0047965): −2.959
- log2 (Ratio) MYCT1 (mRNA, MDA-MB-231 cells, 24-h treatment, ID PH_hs_0048553): 3.866
- log2 (Ratio) FKBP4 (mRNA, MDA-MB-231 cells, 24-h treatment, ID PH_hs_0048881): 2.809
- log2 (Ratio) NRP1 (mRNA, MDA-MB-231 cells, 24-h treatment, ID PH_hs_0048993): −2.677
- log2 (Ratio) GPR39 (mRNA, MDA-MB-231 cells, 24-h treatment, ID PH_hs_0049449): −2.73
- log2 (Ratio) HSPA6 (mRNA, MDA-MB-231 cells, 24-h treatment, ID PH_hs_0049600): 6.644
- log2 (Ratio) ZNF121 (mRNA, MDA-MB-231 cells, 24-h treatment, ID PH_hs_0060053): 2.575
- log2 (Ratio) TRIB3 (mRNA, MDA-MB-231 cells, 24-h treatment, ID PH_hs_0060828): 2.735
- log2 (Ratio) ZBTB21 (mRNA, MDA-MB-231 cells, 24-h treatment, ID PH_hs_0061012): 2.731
- log2 (Ratio) AKR1C1|LOC101060798 (mRNA, MDA-MB-231 cells, 24-h treatment, ID PH_hs_0062199): 3.357
- log2 (Ratio) CDKN1A (mRNA, MDA-MB-231 cells, 24-h treatment, ID PH_hs_p061784): 2.967
- genes expressed at least by 2.5 folds compared with untreated control (total): 97 genes
